Reference: patent US20050163781A1, “Tissue adhesion formation control” (priority 2002, published 2005)

Tests used:
adhesion formation [1] = conditions: oxygen added to CO2 pneumoperitoneum, intubated mice
Description: In adult, female, NMRI (Naval Medical Research Institute) mice adhesions were induced by laparoscopy and evaluated by laparotomy under microscopic view in order to assess similar variables than in the rabbit model. […] The endoscope with an outer sheath for insufflation (total diameter 3.2 mm) was introduced caudal to the xyphoides by open laparoscopy. Survival after different insufflation pressures and duration of pneumoperitoneum was evaluated in non-intubated and intubated mice. […] For the induction of adhesions, after the establishment of the pneumoperitoneum, the 2nd and 3rd ports (14-gauge catheters) were introduced in the left and right flanks under laparoscopic vision. Standardised, opposing, linear lesions in the anti-mesenteric border of uterine horns and in the pelvic sidewalls were performed by monopolar coagulation. After 7 or 28 days adhesions were evaluated by scoring extent, type and tenacity and by a quantitative measurement. In non-intubated mice CO2 pneumoperitoneum at 2.5 cm of water was maintained for 5, 15, 30, 60 and 120 min to evaluate the effect of duration of pneumoperitoneum. […] To confirm this effect and to evaluate the effect of desiccation due to the flow rate though the animal, pneumoperitoneum was maintained for 5 and 60 min without flow and for 60 min with 1 and 10 ml/min of flow rate. […]

adhesion formation [2] = conditions: 0, 1, 2.5, 5, 10 and 20% of oxygen in CO2 pneumoperitoneum for 1 hour, laser lesions, rabbits

## O=O [oxygen]
Adhesion formation [1]
  oxygen proportion giving half maximal reduction of adhesions: around 1.5 % of oxygen
  oxygen proportion required for maximal response (reduction of adhesions): 2-3 % of oxygen
Adhesion formation [2]
  oxygen proportion at which maximal effect (decrease of adhesion formation) was observed: 5 % of oxygen
